Assay results reported in ChEMBL document CHEMBL4834487, “Model studies towards prodrugs of the glutamine antagonist 6-diazo-5-oxo-l-norleucine (DON) containing a diazo precursor” (Bioorg Med Chem Lett, 2021).

Experiments:
[1] = Stability of compound in potassium phosphate buffer at pH 7.4 assessed as parent compound remaining measured after 30 mins; format: physicochemical; conditions: read-out: Stabilty
[2] = Metabolic stability in pig liver homogenate assessed as parent compound remaining measured after 30 mins; format: ADME, tissue-based, Sus scrofa; conditions: read-out: Stabilty
[3] = Metabolic stability in pig brain homogenate assessed as parent compound remaining measured after 30 mins; format: ADME, tissue-based, Sus scrofa; conditions: read-out: Stabilty
[4] = Stability of compound in sodium acetate buffer at pH 4 assessed as parent compound remaining measured after 60 mins; format: physicochemical; conditions: read-out: Stabilty
[5] = Stability of the compound in DMSO measured for 24 hrs; format: physicochemical
[6] = Drug metabolism in pig brain homogenate assessed as 6-Diazo-5-oxo-L-norleucin formation by ion chromatogram analysis; format: ADME, tissue-based, Sus scrofa
[7] = Drug metabolism in pig brain homogenate assessed as N-acetyl-6-Diazo-5-oxo-L-norleucin formation by ion chromatogram analysis; format: ADME, tissue-based, Sus scrofa
[8] = Stability of the compound in DMSO measured within 12 hrs; format: physicochemical

Row | remaining at 0.5 h [1] [%] | remaining at 0.5 h [2] [%] | remaining at 0.5 h [3] [%] | remaining at 1 h [4] [%] | Stabilty [5] | Drug metabolism [6] | Drug metabolism [7] | Stabilty [8] | Compound
1 | < 5 | < 5 | < 5 | > 95 | Stable | Metabolite_Notdetected | Metabolite_Detected | – | CC(=O)N[C@@H](CCC(=O)Cn1nnc2c(C(N)=O)ncn2c1=O)C(=O)O
2 | – | – | – | – | – | – | – | Unstable | CC(=O)NC(CCC(=O)CN(N=O)C(=O)OCc1ccccc1)C(=O)O (stereo not drawn)
